Drawing on a melting point compilation (Tetko et al.; mined from patent text by program, amines drawn as free bases though some values may be those of a salt), this text covers melting point for 64 compounds.

On to `C=C(Nc1nc(-c2ccccc2)c(-c2nc3ccccc3c(=O)n2-c2ccc(C)cc2)s1)c1ccco1`, for which the melting point (in general, the temperature of the solid-liquid transition) was in the range of 231 to 232 °C. As to `CC(C)(C)NCC(O)COc1cccc2c1CNC(=O)N2` (centres undefined), the melting point was in the range of 204 to 205 °C. As for `COC(=O)C=Cc1cc(-n2nc(C)n(C(F)F)c2=O)c(Cl)cc1Cl`, the melting point was 148 to 151 °C.

`Cn1cc(C#N)c(-c2ccc([N+](=O)[O-])o2)n1` showed a melting point of 176 to 178 °C. The same measure for `CC(=O)Nc1nc(N)nnc1-c1cccc(Cl)c1Cl`: 250 to 252 °C; for `Nc1sc2c(c1C(=O)c1ccc(Cl)cc1)CCS2`: 146 to 150 °C.

`OCc1cccc(Nc2nc(Oc3ccccc3)nc(Oc3ccccc3)n2)c1` gave a melting point of 49 to 52 °C.

`COc1ccc2c(c1)C(CC#N)=CCC2` registered a melting point of 48 to 50 °C. The same measure for `COc1ccc(F)cc1C(C)(C)CC(O)(C(=O)O)C(F)(F)F` (centres undefined): 102 to 104 °C; for `N#CC(c1ccccc1)c1ccccn1` (racemic): 89 °C.

As for `CCCCCCCCCCCCCCCCCc1cc(=O)[nH]c(NC(=N)Nc2ccccc2)n1`, the melting point is 164 °C.

`CCCCCCCOc1ccc(C(=O)O)c(Cl)c1` showed a melting point of 76 to 78 °C.

With `N=c1sc2cc(OC(F)(F)F)ccc2n1CCSc1ncccn1`, the melting point worked out at 110 °C. In turn, `CCCCc1cc2c(N=C3SC[C@@H]4Cc5ccccc5CN34)cccc2cn1` returned a melting point of 82 °C. The result for `O=c1cnc(-c2ccc(F)c(Br)c2)nn1Cc1ccc(Cl)nc1` reads 138 to 140 °C; that for `CC1=C(C(=O)OCCN(C)Cc2ccccc2)C(c2ccccc2C#N)c2c(ccnc2OC(C)C)N1` (centres undefined), 120 to 122 °C; that for `COc1ccc(-c2c(C)[nH]c(=S)n2Nc2cccc(Cl)c2)cc1`, 226 °C. The same measure for `Cc1nc(-c2c(Cl)cccc2Cl)n[nH]1`: 221 to 226 °C; for `O=S(=O)(Nc1cccnc1Nc1ccccc1)c1ccc(O)cc1`: 226 to 228 °C; for `NC(=O)NCCSCC(=O)O`: 135 °C. The same measure for `COc1cc(C(C)C)c(Oc2cnc(N)nc2N)cc1C#CC1CC1`: 226 to 227 °C.

In turn, `O=c1[nH]c(=Cc2ccccc2[N+](=O)[O-])c(=O)[nH]c1=Cc1ccc(OCc2ccccc2)cn1` gave a melting point of 295 to 296 °C. The result for `O=C(O)c1cc(-n2c(-c3ccccc3)cc3c2-c2ccccc2CC3)ccc1O` reads 215 to 218 °C; that for `COC(=O)CCCCCCCCCCCCCCCCCCCS(=O)(=O)c1ccc(C)cc1`, 72.5 to 73.5 °C. The same measure for `Cc1cccc(NC(=O)NC(C(=O)O)C(C)C)c1` (racemic): 170 °C; for `Oc1ccc2c(c1)C13CCCCC1(Cc1ccccc1)C(C2)N(CC1CC1)CC3` (centres undefined): above 280 °C; for `O=C1NC(=O)c2c1c(-c1ccccc1Cl)cc1c2c(Br)cn1CCCN1CCOCC1`: 117 to 120 °C. `CNC(=S)C1(c2cccnc2)CCCCC1=CCOc1ccc(O)cc1` (centres undefined): the melting point was in the range of 82 to 88 °C.

For `O=C(O)CCc1ccc(O)c(C=Nc2cc(S(=O)(=O)O)ccc2O)c1`, the melting point was above 275 °C.

Consider `CCCC(=O)NN=C(c1ccc(Cl)cc1)c1ccc(OC(F)F)cc1`, for which the melting point is 114 to 125 °C. The result for `CSc1nnc(-c2ccccc2Nc2c(Cl)ccc(C)c2Cl)o1` reads 170 to 171 °C. The result for `COc1ccc(C(=NOC(C)=O)c2cc(F)ccc2F)c(O)c1Cl` reads 130 to 131 °C; that for `CCOC(=O)C(O)=CC(=O)c1ccc(C)o1`, 88 to 92 °C.

Turning to `CCOc1cc(NC(C)=O)c(Cl)cc1C(=O)NCC1CN(Cc2ccc(F)cc2)CCO1` (centres undefined), the melting point lay within 161 to 163 °C. The same measure for `CCCCS(=O)(=O)Nc1ccc(CCCCOCCCCCCNCC(O)c2ccc(O)c(CO)c2)cc1` (centres undefined): 81 to 84 °C; for `C=CCS(=O)(=O)CC=C`: 63 to 65 °C. The same measure for `O=c1ccc2cc(C(O)(C(F)(F)F)C(F)(F)F)cc3c2n1CCC3`: 295 to 296 °C; for `CC1(C)OC(=O)c2ccc(COc3c(F)cc([N+](=O)[O-])cc3F)cc21`: 125 to 127 °C; for `OC(=S)CCCCCCn1c(-c2ccccc2)nc(-c2ccccc2)c1-c1ccccc1`: 166 to 169 °C. The same measure for `CCCCNC(=O)C(=O)NCCCCCBr`: 109 to 110 °C; for `COc1ccc(-c2ccc(C(C)C)cc2)c(C(=O)Nc2ccc(N3CCN(CC(N)=O)CC3)cc2)c1`: 207 to 209 °C.

The compound `CON(C)C(=O)CCCCCCNC(=O)c1cn2c3c(cccc13)CCC2` came in with a melting point of 61 to 62 °C. The same measure for `CN(C)C=CC(=O)c1c(-c2ccccc2Cl)nc2occn12`: 187 to 189 °C. In turn, `NC(=O)c1cn(Cc2cccc(F)c2F)cn1` yielded a melting point of 221 to 222 °C. `COC(=O)c1ccc(C(=O)NCc2cc(OC)cc(OC)c2)cc1Cl` had a melting point of 101 to 103 °C.

Turning to `CCC(OC(C)=O)c1ccc(Cl)c2nc3n(c12)CCCN3c1ccc(N(C)C)nc1C` (centres undefined), the melting point was 165 to 166 °C.

`CSc1ccc2[nH]c(=O)oc(=O)c2c1` displayed a melting point of 216 to 218 °C. The same measure for `CC(C)c1cc2c(c(O)c1-c1ccc3c(c1)CCCC3)CCCC2`: 110 °C; for `N#CC1(Nc2ccccc2)CCN([C@@H]2CC[C@H]3CCCc4cccc2c43)CC1` (racemic): 142 °C. `CCOC(=O)c1c(N)n(C)c2cc(Cl)ccc12` gave a melting point of 155 to 157 °C. The result for `CC(=O)SCC(Cc1ccc(C)cc1)C(=O)Nc1cccc(C(=O)O)c1C` (centres undefined) reads 206 to 208 °C; that for `Cn1ccc2c3c(c(-c4ccccc4S(C)=O)cc21)C(=O)NC3=O` (centres undefined), 311 to 315 °C; that for `O=C1C=C(c2ccccc2)SCCN1`, 148 to 150 °C. In the case of `CCN(CC)c1ccc(NC(=O)c2ccc(-c3[nH]nc4c3C(=O)c3c(NC(=O)NN5CCOCC5)cccc3-4)s2)cc1`, the melting point fell in the range of 198 to 199 °C. `Cn1c(=N)sc2cc(OC(F)(F)F)ccc21` gave a melting point of 60 to 62 °C. The result for `CCOP(=O)(OCC)C(O)c1ccc([N+](=O)[O-])cc1` (centres undefined) reads 94 to 95 °C; that for `CC(O)(CCO)c1ccc(-c2ccc(F)cc2F)cc1` (centres undefined), 82 to 84 °C. The same measure for `O=C(O)c1ccc2c(c1)Sc1ccc(Cl)cc1C=C2`: 302 to 304 °C; for `Nc1cc(=O)n(Cc2cccc([N+](=O)[O-])c2)[nH]1`: 163 °C; for `N#Cc1cc2cccc(NS(=O)(=O)c3cccs3)c2[nH]1`: 283 to 284 °C.

`CC1(CN2CCCN(Cc3ccc(-c4ccccc4)cc3)CC2)Cn2cc([N+](=O)[O-])nc2O1` (centres undefined) gave a melting point of 138 to 142 °C. The result for `O=C(NCCCCCCOC(=O)N1CCC(OC(=O)Oc2ccc([N+](=O)[O-])cc2)CC1)Oc1ccc(Oc2ccccc2)cc1` reads 93 to 94 °C; that for `COC(=O)CC(=O)CC(O)/C=C/C1=C(c2ccc(F)cc2)C=C(c2ccc(F)cc2)CC12CCCC2` (centres undefined), 96 to 99 °C.

The compound `Cc1nc2cccc(N)c2nc1C` registered a melting point of 162 to 163 °C.
